Values quoted from earlier work, collected in patent publication US20210244720A1, “Therapeutic Tyrosine Kinase Inhibitors for Relapsing Multiple Sclerosis (RMS)” (Genzyme Corporation, priority 2020, published 2021).

System: RMS patients
Settings: from Week 12; cited from earlier work

Compound: C=CC(=O)N1CCC(CNc2ncnc(N)c2-c2ccc(Oc3ccccc3)cc2)CC1 [evobrutinib]
- reduction of new Gd-enhancing T1 lesions: meaningful reduction
